Data from patent US10322126B2, “Solid dispersions of low-water solubility actives” (Bend Research, Inc., priority 2013, dated 2019).

Key:
[1] = cited from earlier work
[2] = Microcentrifuge dissolution test (simulated gastric buffer, then FaSSIF); type: physicochemical; details: 37° C.
Procedure: Dispersion 1 was evaluated in vitro using a microcentrifuge dissolution test using the following procedure. First, a sample of Dispersion 1 was placed in a microcentrifuge tube. A simulated gastric buffer (GB) solution consisting of 0.01 N HCl in water at 37° C. was added to each tube, so that the concentration if all of the active in the dispersion had dissolved would have been 2000 μg/mL. The tubes were vortexed for 1 minute. All work was performed in a temperature-controlled box at 37° C. After 9 minutes, the tubes were centrifuged at 13,000 rpm for 1 minute. A 50 μL centrifuged supernatant aliquot was removed from each tube and added to an HPLC vial containing 250 μL HPLC grade methanol. Following sample removal, the tubes were vortexed for 30 seconds. The tubes were allowed to sit undisturbed until the next sample, repeating the centrifuging/sampling/vortexing steps described above, to obtain a sample at 25 minutes following addition of the GB solution to the sample.
After 30 minutes in the GB solution, 0.8 mL of double strength (1 wt %) simulated intestinal fluid powder (SIF powder, available from Phares AG, Basel, Switzerland) in double strength phosphate buffer saline (0.166 M NaCl, 0.040 M Na2HPO4, and 0.093 M KH2PO4), adjusted to pH 6.5 was added to each tube. The tubes were vortexed for 1 minute. The testing solution composition was used to model fasted simulated intestinal fluid (FaSSIF). The FaSSIF powder contains bile salts (taurocholate) and phospholipids (lecithin) in a molar ratio of 4 to 1, along with buffers and osmotic adjusters. The concentration of active in each tube was 1000 μg/mL if all of the active had dissolved. After 3 minutes in the FaSSIF solution, the tubes were centrifuged at 13,000 rpm for 1 minute. A 50 μL centrifuged supernatant aliquot was removed, as previously described, and added to an HPLC vial containing 250 μL of methanol. The tube then was vortexed for 30 seconds, and left undisturbed until the next time point. The procedure was repeated to collect samples at 10, 20, 40, 90, and 180 minutes after addition of FaSSIF to the vials.
The dissolved concentrations of active were measured by HPLC. HPLC was performed using a Zorbax® SB-C18, 4.6×150 mm, 5 μm column at 30° C., and a mobile phase comprising 20 mM ammonium acetate/acetonitrile (43/57 vol/vol). The flow rate was 1.0 mL/min, 10 μL of each solution was injected, and the absorbance was measured at 332 nm.
Dispersion 2 was tested using the same procedures described above. Control 1 was tested using the same procedures described above.

Dissolved Active Concentration ([2]; 10 minutes, GB solution (0.01 N HCl), 2000 μg/mL if all dissolved): 1,847.8 μg/mL | Dissolved Active Concentration ([2]; 25 minutes, GB solution (0.01 N HCl), 2000 μg/mL if all dissolved): 1,818.5 μg/mL | Dissolved Active Concentration ([2]; 34 minutes (4 min after addition of FaSSIF, pH 6.5), 1000 μg/mL if all dissolved): 58.0 µg/mL | Dissolved Active Concentration ([2]; 40 minutes (10 min after addition of FaSSIF, pH 6.5), 1000 μg/mL if all dissolved): 68.1 µg/mL | Dissolved Active Concentration ([2]; 50 minutes (20 min after addition of FaSSIF, pH 6.5), 1000 μg/mL if all dissolved): 51.4 µg/mL | Dissolved Active Concentration ([2]; 70 minutes (40 min after addition of FaSSIF, pH 6.5), 1000 μg/mL if all dissolved): 55.1 µg/mL | Dissolved Active Concentration ([2]; 120 minutes (90 min after addition of FaSSIF, pH 6.5), 1000 μg/mL if all dissolved): 67.8 µg/mL | Dissolved Active Concentration ([2]; 210 minutes (180 min after addition of FaSSIF, pH 6.5), 1000 μg/mL if all dissolved): 55.1 µg/mL
SMILES: C#Cc1cccc(Nc2ncnc3cc(OCCOC)c(OCCOC)cc23)c1 [Erlotinib, N-(3-ethynylphenyl)-6,7-bis(2-methoxyethoxy) quinazolin-4-amine]
solubility in phosphate buffered saline (pH 6.5) [1]: about 1 μg/mL
